Measurements as given in patent publication EP0059817A1, “Serpentine, alstonine and sempervirine drugs for the specific inhibition of tumurous and cancerous cells” (priority 1981, dated 1982).
Read-outs that look alike come from different tables or passages of the source.

Experiments:
Cellules K.B. = assay: cell culture cytotoxicity, cancer cells; format: cell-based; conditions: 200 µg/ml; en culture de 3 jours dès l'ensemencement
Procedure: (§1) L'effet cytotoxique spécifique, vis-à-vis des cellules tumorales utilisées, ne s'est jamais démenti au cours des très nombreuses expériences effectuées. Par contre, pour effectuer les cellules saines il a fallu des quantités d'alcaloides au moins dix fois plus grandes (plus de 2 mg/ml). (Les cultures de cellules in-vitro sans mycoplàsmes ont été effectuées dans les conditions classiques et en l'absence d'antibiotique qui pourraient fausser les résultats).
(§2) Les cellules cancéreuses et saines utilisées ne contenaient pas de mycoplasmes et le milieu de culture ne contenait pas d'antibiotique, ces derniers pouvant sensibiliser les cellules et par conséquent fausser les résultats.

lymphome YC 8 [1] = assay: lymphoma YC 8 of the mouse, alstonine and cyclophosphamide; format: in vivo, souris BALB C; conditions: for survie (surviving mice/total): i.p., alstonine 400 µg par jour, 8 days from day 3, mixture with 2 mg cyclophosphamide
tumeur MS 301 = assay: transplantable mammary cancer of the mouse; format: in vivo, souris de souche Rh0 III; conditions: 400 ^gg at the tumour implantation site, twice a day for 15 days from day 3; n=10; p : 0,01
Source text: Action sur le cancer mammaire greffable de la souris • - Vingt souris de 18 à 20g, de souche Rh0 III ont été inoculées, par voie sous-cutanée, par 0,8 " d'un extrait de tumeur MS 301, broyé. Dix souris ont été gardées comme témoins; dix autres vaient, le troisième jour après l'inoculation, 400 ^gg d'alstonine au niveau de l'implantation tumorale, deux fois par jour, pendant quinze- jours. Au seizième jour, les souris étaient anesthésiées et sacrifiées, les tumeurs excisées et pesées. • - La même expérience fut effectuée avec la serpentine au lieu d'alstonine.

[2] = tested on: Cellules primaires de reins de singe; assay: cell culture cytotoxicity, normal cells; format: cell-based; conditions: 200 µg/ml; en culture de 7 jours dès l'ensemencement
Procedure: Des cultures de cellules saines (cellules primaires de reins de singe, cellules de lignée "Vero" et "SIRC") et des cultures de cellules cancéreuses (cellules K.B., cellules Hela, cellules Hep II et cellules L)ont reçu une dose de 200 Mg, soit de serpentine, soit d'alstonine, soit de sempervirine, par ml de culture.
as §1, §2

Ascite d'Ehrlich [3] = assay: Ehrlich ascites tumour in the mouse, serpentine, alstonine, cyclophosphamide; format: in vivo, souris blanches Swiss; conditions: for definitive arrest of the Ehrlich ascites tumour (in words): each substance alone, treatment from day 4 or 5 for 10 to 15 days; for survie (surviving mice/total): I.P., serpentine 400 µg par jour, cyclophosphamide 2 ma par jour
Source text: Activité vis-à-vis des tumeurs "Ascite d'Ehrlich" chez la souris - 5 x 10^3 cellules Ascite d'Ehrlich sont inoculées à des souris blanches Swiss de 20-24 g, par voie intrapéritonéale.
Divers traitements furent appliqués dès le quatrième ou le cinquième jour et pendant dix à quinze jours. […] Un net ralentissement du développement des tumeurs est observé, mais les tumeurs repartent après arrêt du traitement dans le cas du cyclophosphamide seul, le redémarrage peut être plus tardif qu'avec la serpentine ou l'alstonine. Par contre, l'association de serpentine (400 µg par jour) et de cyclophosphamide (2 ma par jour) par voie I.P. permet d'obtenir une survie définitive (survie définitive : survie normale pendant trois mois sans perte de poids) et le pourcentage des survivants varie de 80 à 100% (Tableau IV ci-après). Les souris ainsi guéries augmentent normalement de poids et après quatre à six mois celui-ci est de 24-26 g. Leur aspect est absolument normal et rien ne les distingue de souris saines. (Dans les expériences, seule la survie sans récidive est prise en considération).
La figurer, où sont portés en abscisses le nombre de jours de traitement et en ordonnées le poids (en gramme) des souris, montre l'évolution de la tumeur d'Ehrlich chez les souris traitées, soit par la serpentine seule (courbe 2), soit par le cyclophosphamide seul (courbe 3), soit par la serpentine + cyclophosphamide (courbe 4) par voie intra- péritonéale et aux doses indiquées ci-dessus. […] Aucun de ces deux traitements ne permet d'obtenir une survie.définitive. Par contre, le mélange de serpentine et de cyclophosphamide permet d'obtenir une survie définitive.

virus de la grippe = format: in vivo, souris SWISS; conditions: for survie (surviving mice/total): 200 µg i.p. twice a day, 8 days
Ascite d'Ehrlich [4] = assay: Ehrlich ascites tumour in the mouse, serpentine, alstonine, cyclophosphamide; format: in vivo, souris blanches Swiss; conditions: voie sous-cutanée, doses as above
virus de la vaccine = tested on: virus de la vaccine; parameters: species or system lapin; conditions: in vivo
lymphome YC 8 [5] = assay: lymphoma YC 8 of the mouse, sempervirine; format: in vivo, souris BALB c; conditions: for survie (surviving mice/total): 10 days from day 2
Source text: 34 souris BALB c de 17-20 g sont inoculées par voie intra- péritonéale par […] ascitiques du lymphome YC 8 de la souris fraîchement prélevées et dix souris sont gardées comme témoins.
24 souris sont traitées le deuxième jour après inoculation par la sempervirine dissoute en milieu tamponné (pH 7,65) à raison de deux fois par jour par voie intrapéritonéale (300 µ g par jour) et pendant 10 jours consécutifs.
Les résultats sont présentés dans le tableau IX ci-après et illustrent la survie pendant trois mois des animaux traités. (Une survie de plusieurs jours n'est pas prise en considération).

cellules saines = assay: cell culture cytotoxicity, healthy cells as a group; format: cell-based; conditions: 200 Mg par ml de culture; au bout de huit jours d'observation; reins de singe, Vero, SIRC
Procedure: as §1, §2

Ascite d'Ehrlich [6] = assay: Ehrlich ascites tumour in the mouse, sempervirine; format: in vivo, souris BALB c; conditions: for survie (surviving mice/total): i.p. 300 µg par jour in two doses, 10 days from day 2
Source text: Les résultats sont présentés dans le tableau X ci-après et illustrent la survie des animaux pendant trois mois, une survie de plusieurs jours n'étant pas prise en considération.

cellules cancéreuses = assay: cell culture cytotoxicity, cancer cells as a group; format: cell-based; conditions: 200 Mg par ml de culture; en 24 à 48 heures; K.B., Hela, Hep II, L
Procedure: as §1, §2

With `COC(=O)C1=CO[C@@H](C)[C@@H]2Cn3ccc4c5ccccc5nc-4c3C[C@H]12` [alstonine] the destruction des cellules (Cellules K.B.) was “Destruction totale en 24-48 heures”, the “survie (in words)” value (lymphome YC 8 [1]; alstonine seule, same doses, voie sous-cutanée) was “ne survivent pas plus longtemps que les souris témoins” and the “survie (surviving mice/total)” value (lymphome YC 8 [1]; day 0) was 10/10. The “survie (surviving mice/total)” value (lymphome YC 8 [1]; day 22) was 7/10, the “survie (surviving mice/total)” value (lymphome YC 8 [1]; day 60) was 4/10 and the “survie (surviving mice/total)” value (lymphome YC 8 [1]; day 90) was 4/10. For the same molecule, the “POIDS MOYEN (en grammes) DES TUMEURS, AU 16è JOUR” value (tumeur MS 301) was 1,7 (compris entre 0,8 et 2,6) grammes, the destruction des cellules [2] was “Pas de destruction pendant 8 jours” and the “definitive arrest of the Ehrlich ascites tumour (in words)” value (Ascite d'Ehrlich [3]) was “ne peuvent définitivement arrêter la tumeur ascitique d'Ehrlich”. The “activity against influenza compared with sempervirine” value (virus de la grippe; doses comparables) was “résultats tout à fait comparables” and the “survie and tumour evolution (in words)” value (Ascite d'Ehrlich [4]) was “sans effet sur la survie définitive des souris”.
In the case of `O=P1(N(CCCl)CCCl)NCCCO1` (stereo not shown) [cyclophosphamide], the “outcome with cyclophosphamide alone (in words)” value (lymphome YC 8 [1]; cyclophosphamide seul) is reported as “après 1-3 mois, l'amaigrissement est tel qu'elles meurent”, the “amaigrissement of the treated mouse” value (Ascite d'Ehrlich [3]; cyclophosphamide seul, i.p.) is reported as “amaigrissement très fort” and the “survie (surviving mice/total)” value (Ascite d'Ehrlich [3]; day 0) is reported as 6/6. For the same molecule, the “survie (surviving mice/total)” value (Ascite d'Ehrlich [3]; day 25) was 6/6, the “survie (surviving mice/total)” value (Ascite d'Ehrlich [3]; day 35) was 6/6 and the “survie (surviving mice/total)” value (Ascite d'Ehrlich [3]; day 60) was 2/6. The “survie (surviving mice/total)” value (Ascite d'Ehrlich [3]; day 120) was 0/6, the “definitive arrest of the Ehrlich ascites tumour (in words)” value (Ascite d'Ehrlich [3]) was “ne peuvent définitivement arrêter la tumeur ascitique d'Ehrlich” and the “évolution de la tumeur d'Ehrlich (figure, weight of mice against days of treatment)” value (Ascite d'Ehrlich [3]; voie intrapéritonéale, doses as above, curves 2, 3, 4) was “net ralentissement du poids des tumeurs”.
In the case of `c1ccc2c3ccn4cc5c(cc4c-3nc2c1)CCCC5` [sempervirine], the destruction des cellules (Cellules K.B.) is reported as “Destruction totale en 24-48 heures”, the appearance of papules (virus de la vaccine) is reported as “non apparition de papules ou apparition de papules dont la tailla est considérablement diminuée” and the “survie (surviving mice/total)” value (lymphome YC 8 [5]; day 0, i.p. 300 µg par jour in two doses) is reported as 24/24. The “survie (surviving mice/total)” value (lymphome YC 8 [5]; day 20, i.p. 300 µ g par jour in two doses) was 24/24, the “survie (surviving mice/total)” value (lymphome YC 8 [5]; day 60, i.p. 300 µg par jour in two doses) was 20/24 and the “survie (surviving mice/total)” value (lymphome YC 8 [5]; day 90, i.p. 300 µg par jour in two doses) was 20/24. For the same molecule, the “state of the surviving mice” value (lymphome YC 8 [5]; i.p. treated survivors, kept more than three months) was “tout à fait normales”, the “survie (in words)” value (lymphome YC 8 [5]; voie sous-cutanée) was “ne survivent pas très longtemps après les souris témoins” and the “destruction des cellules saines” value (cellules saines) was “aucune destruction des cellules saines”. For the same molecule, the “survie (surviving mice/total)” value (Ascite d'Ehrlich [6]; day 0) was 20/20, the “survie (surviving mice/total)” value (Ascite d'Ehrlich [6]; day 21) was 15/20 and the “survie (surviving mice/total)” value (Ascite d'Ehrlich [6]; day 60) was 10/20. The “survie (surviving mice/total)” value (Ascite d'Ehrlich [6]; day 90) was 10/20, the “guérison définitive, proportion of mice” value (Ascite d'Ehrlich [6]; sempervirine seule, same results in souris blanches SWISS) was ~50% and the destruction des cellules [2] was “Pas de destruction pendant 8 jours”. The “lung lobes affected by the virus (congestion)” value (virus de la grippe; […], in controls half of the lobes affected) was 0 ou 1 lobe par poumon atteint, the “survie (surviving mice/total)” value (virus de la grippe; day 0, Groupe B: treated from inoculation) was 10/10 and the “survie (surviving mice/total)” value (virus de la grippe; day 0, Groupe C: treated from 24 h after inoculation) was 10/10. The “survie (surviving mice/total)” value (virus de la grippe; day 10, Groupe B: treated from inoculation) was 10/10, the “survie (surviving mice/total)” value (virus de la grippe; day 10, Groupe C: treated from 24 h after inoculation) was 10/10 and the “survie (surviving mice/total)” value (virus de la grippe; day 16, Groupe B: treated from inoculation) was 8/10. For the same molecule, the “survie (surviving mice/total)” value (virus de la grippe; day 16, Groupe C: treated from 24 h after inoculation) was 6/10 and the “destruction des cellules cancéreuses” value (cellules cancéreuses) was “toutes les cellules cancéreuses étaient détruites”.
